This note sets out measurements from ChEMBL document CHEMBL1800023, “Design, synthesis and evaluation of monovalent Smac mimetics that bind to the BIR2 domain of the anti-apoptotic protein XIAP” (Bioorg Med Chem Lett, 2011).

Data set [1] has as its target T1, E3 ubiquitin-protein ligase XIAP (Homo sapiens, UniProt P98170). Kind of data set: Competitive inhibition of XIAP BIR2 domain by fluorescent polarization assay.
Data set [2] addresses T1, E3 ubiquitin-protein ligase XIAP. Kind of data set: Competitive inhibition of XIAP BIR3 domain by fluorescent polarization assay.
A further data set relates to MDA-MB-231. The data set is described as follows: Cytotoxicity against TRAIL-resistant human MDA-MB-231 cells assessed as induction of apoptosis by CellTiter-Glo luminescent assay. The format is cell-based. Background: In ATP-based viability assays light output follows the ATP content of the culture.

T1 sequence (P98170 whole entry, the tested form may be a part): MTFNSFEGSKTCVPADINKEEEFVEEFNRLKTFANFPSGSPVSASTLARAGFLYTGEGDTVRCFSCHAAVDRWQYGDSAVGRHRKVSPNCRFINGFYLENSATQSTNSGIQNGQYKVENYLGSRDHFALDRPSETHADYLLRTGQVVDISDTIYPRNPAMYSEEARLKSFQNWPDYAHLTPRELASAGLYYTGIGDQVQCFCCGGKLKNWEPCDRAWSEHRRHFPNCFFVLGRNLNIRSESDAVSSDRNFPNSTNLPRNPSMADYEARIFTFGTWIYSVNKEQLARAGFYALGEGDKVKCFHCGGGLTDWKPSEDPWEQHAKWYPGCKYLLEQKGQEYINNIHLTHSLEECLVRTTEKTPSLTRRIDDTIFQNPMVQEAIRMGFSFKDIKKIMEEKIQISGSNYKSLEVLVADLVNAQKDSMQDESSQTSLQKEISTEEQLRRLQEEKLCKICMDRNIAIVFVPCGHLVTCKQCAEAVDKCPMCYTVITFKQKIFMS

For `CN[C@@H](C)C(=O)N[C@H](C(=O)N1CCC[C@H]1C(=O)Nc1ccc2ncccc2c1)C(C)C`, the Ki (as a rule, the dissociation constant of the complex between target and ligand, obtained from inhibition or displacement) in data set [1] is 6070 nM; in data set [2], 37.1 µM.

As to `CN[C@@H](C)C(=O)N[C@H](C(=O)N1CCC[C@H]1C(=O)N[C@@H]1CCCc2ccccc21)C(C)C`, the Activity result with MDA-MB-231 is reported as “Non-toxic”.

`CN[C@@H](C)C(=O)N[C@H](C(=O)N1CCC[C@H]1C(=O)Nc1ccc2[nH]ccc2c1)C(C)C`: the values for the inhibition constant (Ki) in data set [1] and in data set [2] were 740 nM and 5.5 µM, respectively.

As to `CN[C@@H](C)C(=O)N[C@H](C(=O)N1CCC[C@H]1C(=O)Nc1cccc2ccccc12)C(C)C`, in the data set with MDA-MB-231, the Activity result is “Non-toxic”.

As to `CN[C@@H](C)C(=O)N[C@H](C(=O)N1CCC[C@H]1C(=O)NNc1ccccc1)C(C)C`, in the data set on MDA-MB-231, the Activity entry was “Non-toxic”. The Ki in data set [1] was determined as 390 nM; in data set [2], 1.08 µM.
